# Results as given in patent US9540336B2, “Therapeutic agents” (priority 2011, dated 2017).
# Values joined by “and” are separate entries in the source; they are usually repeats but may differ in a detail not shown here. Equal entries are not always repeated. “Also recorded” adds a separate entry of the source.
# What was measured:
# [1] = tested on: E. faecalis membranes (NDH-2); experiment: E. faecalis membranes: NADH-Q0 reductase activity and ROS production; assay type: biochemical
# M. smegmatis mc2 155 = experiment: M. smegmatis growth inhibition (colony counts on 7H9 agar); assay type: cell-based; settings: for effect of antioxidants (α-tocopherol, 4-hydroxy-TEMPO, N-acetylcysteine) on growth inhibition: 0.5 μg/ml CFZ or 10 μg/ml INH
# M. smegmatis membranes [2] = experiment: ROS production by M. smegmatis log-phase membranes (Amplex Red/HRP/superoxide dismutase); assay type: biochemical
# M. smegmatis membranes [3] = assay type: biochemical
# [4] = molecular target: recombinant M. tuberculosis NDH-2 (Mycobacterium tuberculosis, UniProt P95160); assay type: biochemical
# E. coli membranes = experiment: Restoration of NADH oxidation and ROS production, E. coli membranes; assay type: biochemical
# M. smegmatis membranes [5] = experiment: Reduction and reoxidation (redox cycling) with M. smegmatis membranes and NADH; assay type: biochemical
# Enterococcus faecium = experiment: Antimicrobial activity (MIC); assay type: cell-based
# [6] = tested on: submitochondrial membranes from S. cerevisiae; experiment: Restoration of NADH oxidation and ROS production, S. cerevisiae submitochondrial membranes; assay type: biochemical
# Enterococcus faecalis = experiment: Antimicrobial activity (MIC); assay type: cell-based
# [7] = Solubility and cationic/uncharged species in detergents (Triton X-100, Na-lauroyl sarcosine)
# [8] = tested on: Staphylococcus aureus MRSA; experiment: Antimicrobial activity (MIC); assay type: cell-based
# S. aureus membranes = experiment: Restoration of NADH oxidation and ROS production, S. aureus membranes; assay type: biochemical, Staphylococcus aureus
# [9] = Solubility in buffered water as a function of pH (centrifugation, spectroscopy); assay type: physicochemical
# Bacillus thuringiensis = experiment: Antimicrobial activity (MIC); assay type: cell-based
# rat mitochondria = experiment: Restoration of NADH oxidation, rat mitochondria; assay type: biochemical; settings: KCN-inhibited rat mitochondria
# [10] = cited from earlier work
# [11] = tested on: P. denitrificans membranes; experiment: Restoration of NADH oxidation and ROS production, P. denitrificans membranes; assay type: biochemical, Paracoccus denitrificans
# P. aeruginosa membranes = experiment: Restoration of NADH oxidation and ROS production, P. aeruginosa membranes; assay type: biochemical, Pseudomonas aeruginosa
# Sequence of recombinant M. tuberculosis NDH-2 (P95160 whole entry, looked up): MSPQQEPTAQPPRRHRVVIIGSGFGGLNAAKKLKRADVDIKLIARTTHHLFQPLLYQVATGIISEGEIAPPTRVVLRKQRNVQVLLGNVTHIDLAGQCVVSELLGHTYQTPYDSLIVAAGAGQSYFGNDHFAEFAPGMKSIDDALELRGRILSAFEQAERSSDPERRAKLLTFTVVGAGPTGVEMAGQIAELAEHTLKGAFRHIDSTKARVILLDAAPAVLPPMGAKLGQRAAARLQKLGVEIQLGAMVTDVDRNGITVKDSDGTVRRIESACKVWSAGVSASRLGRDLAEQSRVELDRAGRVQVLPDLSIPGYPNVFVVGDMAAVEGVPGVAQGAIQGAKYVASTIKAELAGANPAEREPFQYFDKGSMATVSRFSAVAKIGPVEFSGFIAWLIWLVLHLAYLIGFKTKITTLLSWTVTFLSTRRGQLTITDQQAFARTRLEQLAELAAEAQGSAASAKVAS
smiles,measurement,setting,value
"CN(C)CCCN1c2ccccc2Sc2ccc(Cl)cc21 [CPZ, chlorpromazin]",effect on NADH-Q0 reductase activity (NADH oxidation),"[1]; 400 μM CPZ, 0.2 mM NADH, 2 mM Q0",completely ceased
same,inhibition of KS6-mediated ROS production,[1]; E. faecalis membranes,complete inhibition
"NNC(=O)c1ccncc1 [INH, isoniazid]","effect of antioxidants (α-tocopherol, 4-hydroxy-TEMPO, N-acetylcysteine) on growth inhibition",M. smegmatis mc2 155,not altered; also recorded: not sensitive to antioxidants
same,M. smegmatis growth,M. smegmatis mc2 155; 10 μg/ml,completely inhibited
"CN1CCN(CCCN2c3ccccc3Sc3ccc(C(F)(F)F)cc32)CC1 [TPZ, trifluoperazine]",effect on CFZ-mediated ROS production,M. smegmatis membranes [2]; TPZ 0.2 mM,sensitive to TPZ
same,inhibition of NADH oxidase activity,M. smegmatis membranes [3],inhibited CFZ-mediated NADH oxidase activity
same,effect on ROS formation by purified NDH-2 with CFZ,[4],inhibited
"CC(C)N=c1cc2n(-c3ccc(Cl)cc3)c3ccccc3nc-2cc1Nc1ccc(Cl)cc1 [CFZ, 3-(4-chloroanilino)-10-(4-chlorophenyl)-2,10-dihydro-2-(isopropylimino)-phenazine]",ROS production,E. coli membranes; E. coli membranes,did not exhibit significant CFZ-mediated NADH oxidation or ROS production
same,restoration of NADH oxidation,E. coli membranes; KCN-inhibited E. coli membranes,"did not exhibit significant CFZ-mediated NADH oxidation or ROS production; also recorded: no restoration of NADH oxidation; also recorded: little, if any, restoration of NADH oxidation"
same,observed first order rate constant of reoxidation of reduced CFZ,M. smegmatis membranes [5]; 0.5% SDS (final) added,1.40 ± 0.01 min⁻¹
same,reduction on NADH addition with membranes,"M. smegmatis membranes [5]; M. smegmatis membranes, NADH",marked loss of CFZ absorbance
same,observed first (pseudo) order rate constant of reoxidation of reduced CFZ,"M. smegmatis membranes [5]; after agitation, no SDS",1.25 ± 0.01 min⁻¹
same,second order rate constant for reoxidation of reduced CFZ by O2,M. smegmatis membranes [5]; assuming 250 μM O2,~100 M⁻¹ s⁻¹ and 83 M⁻¹ s⁻¹
same,MIC,Enterococcus faecium,10 µM
same,restoration of NADH oxidation,[6]; KCN-inhibited S. cerevisiae submitochondrial membranes,significant restoration of NADH oxidation
same,ROS production,[6]; S. cerevisiae submitochondrial particles,able to oxidize NADH and generate ROS
same,MIC,Enterococcus faecalis,10 µM
same,pKa,[7]; buffered Triton X-100 detergent solution,6.8
same,solubility,"[7]; pH 3.5, aqueous with cosolvent or surfactant or cyclodextrin",≥ 50 µM
same,solubility,"[7]; pH 5, aqueous with cosolvent or surfactant or cyclodextrin",≥ 50 µM
same,MIC,[8],2.5 µM
same,restoration of NADH oxidation,S. aureus membranes; KCN-inhibited S. aureus membranes,significant restoration of NADH oxidation
same,ROS production,S. aureus membranes; S. aureus membranes,able to oxidize NADH and generate ROS
same,inhibitory effect of high levels on mediated NADH oxidation,S. aureus membranes; S. aureus membranes,inhibitory
same,fraction of CFZ remaining in solution,"[9]; 50 mM MOPS/Na+ pH 6.5, 2.0 mM MgCl2, 1.18 μg/ml, 40 min",~70%
same,soluble compound in water,[9]; above pH 7.5,not detectable
same,solubility,"[9]; buffered water (0.1 M buffer), 23 °C, pH 7, aqueous buffer, kinetic from dmso stock, neutral pH, 50 μM added, overnight, centrifuged",< 2 µM
same,solubility in water,[9]; pH 3.5,virtually all the drug remained in the supernatant
same,soluble compound in water,[9]; pH 6.5,barely detectable
same,fraction of CFZ remaining soluble,"[9]; reaction buffer pH 6.5, 1.2 μg/ml, 40-min incubation",About two-thirds
same,MIC,Bacillus thuringiensis,5 µM
same,increase of rate of ROS production over background,"M. smegmatis membranes [2]; log-phase membranes, NADH, 0.5 μg CFZ",11.5 fold
same,ROS (resorufin) production rate relative to rate of NADH consumption / electron transport chain,"M. smegmatis membranes [2]; maximum, 0.1-0.2 μg CFZ/μg membrane protein, no KCN",~18%
same,CFZ reduction and ROS production with succinate instead of NADH,M. smegmatis membranes [2]; succinate as electron donor,neither CFZ reduction nor ROS production was observed
same,restoration of NADH oxidation,rat mitochondria,"little, if any, restoration of NADH oxidation"
same,"effect of antioxidants (α-tocopherol, 4-hydroxy-TEMPO, N-acetylcysteine) on growth inhibition",M. smegmatis mc2 155,nullified the growth inhibitory activity; also recorded: prevented
same,colony formation of M. smegmatis on agar,"M. smegmatis mc2 155; 0.5 μg/ml CFZ or more, ≧4 days, control 670±100 colonies",undetectable; also recorded: Virtually no colonies
same,CFZ-mediated NADH oxidase rate relative to rate in absence of KCN,M. smegmatis membranes [3],25-70%
same,fraction of NADH oxidase activity restored (maximum),M. smegmatis membranes [3],0.25 and 0.40-0.70
same,restoration of NADH oxidation,M. smegmatis membranes [3],restored a significant level of NADH oxidation
same,"redox potential Em, cationic species",[10]; Kovacic et al. 1989,−180 mV
same,"redox potential Em, uncharged species",[10]; Kovacic et al. 1989,−950 mV
same,pKa (commonly quoted),[10]; unclear origin,8.5
same,restoration of NADH oxidation,[11]; KCN-inhibited P. denitrificans membranes,"did not exhibit significant CFZ-mediated NADH oxidation or ROS production; also recorded: little, if any, restoration of NADH oxidation"
same,ROS production,[11]; P. denitrificans membranes,did not exhibit significant CFZ-mediated NADH oxidation or ROS production
same,restoration of NADH oxidation,P. aeruginosa membranes; KCN-inhibited P. aeruginosa membranes,"did not exhibit significant CFZ-mediated NADH oxidation or ROS production; also recorded: little, if any, restoration of NADH oxidation"
same,ROS production,P. aeruginosa membranes; P. aeruginosa membranes,did not exhibit significant CFZ-mediated NADH oxidation or ROS production
same,ROS generation with purified NDH-2 and NADH,[4],generation of ROS
same,reduction by purified NDH-2,[4]; pH 6.5,purified NDH-2 reduces CFZ
